Legend:
[1] = tested on: H358 cells; assay: H358 cell proliferation assay (CellTiter-Glo); assay type: cell-based; conditions: Homo sapiens, NCI-H358; inhibitory activity against H358 cell proliferation, 120 h incubation
Experimental: The inhibitory activity of the compound of the present disclosure against H358 cell proliferation was measured. Below is a brief description of the experimental method: H358 cells (ATCC, CRL-5807) were cultured in RPMI1640 medium (Hyclone, SH30809.01) containing 10% fetal bovine serum (Corning, 35-076-CV) (i.e., complete medium). On the first day of the experiment, H358 cells were seeded into a 96-well plate at a density of 1200 cells/well using complete medium, with 100 µL of cell suspension per well, and the plate was incubated overnight in a 5% CO2 cell incubator at 37 °C. On the second day, the test compound, prepared in complete medium and serially diluted, was added at 10 µL/well. The final concentrations of the compound were 9 concentration points obtained by a 5-fold serial dilution from 10 µM. A blank control containing 0.5% DMSO was set up. The plate was incubated for 120 h in a 5% CO2 cell incubator at 37 °C. On the seventh day, the 96-well cell plate was removed from the incubator, and Cell Titer-Glo® Luminescent Cell Viability Assay (Promega, G7573) was added at 50 µL/well. After the plate was left to stand at room temperature for 10 min, the luminescence signal values were measured using a multifunctional microplate reader (PerkinElmer, EnVision® 2105), and the IC50 value for the inhibitory activity of the compound was calculated using Graphpad Prism software. Table 1. […]

[2] = tested on: MIA PaCa-2 cells; assay: MIA PaCa-2 cell proliferation assay (CellTiter-Glo); assay type: cell-based; conditions: Homo sapiens; inhibitory activity against MIA PaCa-2 cell proliferation, 72 h incubation
Experimental: The inhibitory activity of the compound of the present disclosure against MIA PaCa-2 cell proliferation was measured. Below is a brief description of the experimental method: MIA PaCa-2 cells (ATCC, CRL-1420) were cultured in DMEM/HIGH GLUCOSE medium (GE, SH30243.01) containing 10% fetal bovine serum (Corning, 35-076-CV) and 2.5% horse serum (Beyotime Biological Tech., C0262) (i.e., complete medium). On the first day of the experiment, MIA PaCa-2 cells were seeded into a 96-well plate at a density of 500 cells/well using complete medium, with 90 µL of cell suspension per well, and the plate was incubated overnight in a 5% CO2 cell incubator at 37 °C. On the second day, the test compound, prepared in complete medium and serially diluted, was added at 10 µL/well. The final concentrations of the compound were 9 concentration points obtained by a 5-fold serial dilution from 10 µM. A blank control containing 0.5% DMSO was set up. The plate was incubated for 72 h in a 5% CO2 cell incubator at 37 °C. […] After the plate was left to stand at room temperature for 10 min, the luminescence signal values were measured using a multifunctional microplate reader (PerkinElmer, EnVision2015). The IC50 value for the inhibitory activity of the compound was calculated using Graphpad Prism software. […]

IC50 [1]: 0.74 nM
IC50 [2]: 0.28 nM
SMILES: C=CC(=O)N1CCN2C(=O)c3cc(F)c(-c4ccc(F)c5sc(N)c(C#N)c45)c4c(Cl)nn(c34)CC[C@H]2C1 (atropisomer, axis not shown) [Compound 1, (S)-4-((S)-10-acryloyl-4-chloro-2-fluoro-14-oxo-8,8a,9,10,11,12-hexahydro-7H,14H-pyrazino[1',2':5,6][1,5]diazocino[3,2,1-hi]indazol-3-yl)-2-amino-7-fluorobenzo[b]thiophene-3-carbonitrile]
